Source: patent publication US9238657B2, “Cephalosporin having catechol group” (SHIONOGI & CO., LTD., priority 2008, dated 2016)
≈ marks a conversion by molar mass, not a printed value. Read-outs that look alike come from different tables or passages of the source.

Legend:
Assay in all cases: Minimum Inhibitory Concentration (MIC), agar plate incubation
Type in all cases: cell-based
[1] = system: Acinetobacter baumannii SR24396
Description: (§1) Measurement of Minimum Inhibitory Concentration (MIC, microg/ml) was conducted according to the standard method of the Japan Society for Chemotherapy, and the amount of bacteria for inoculation was 1000 cfu/spot, and sensitive disc medium was used as the test medium, and conducted using agar plate incubation.
(§2) In the tables, a unit of the values of inhibitory activity is microg/ml (μg/ml).
(§3) Bacterial strains described in the above tables and enzyme (beta-lactamase) produced thereby are explained in Table 7.

[2] = system: Klebsiella pneumoniae ATCC 700603
Description: as §1, §2, §3

[3] = system: Pseudomonas aeruginosa SR24
Description: as §1, §2, §3

[4] = system: Pseudomonas aeruginosa SR27060
Description: as §1, §2, §3

[5] = system: Stenotrophomonas maltophilia SR21970; conditions: Stenotrophomonas maltophilia SR21970 (L-1, MBL producer strain, carbapenem resistant); 1000 cfu/spot, sensitive disc medium; read-out: Minimum Inhibitory Concentration (MIC)
Description: as §1, §2, §3

[6] = Acinetobacter baumannii SR24396 (no enzyme), 1000 cfu/spot, sensitive disc medium, read-out: Minimum Inhibitory Concentration (MIC)
[7] = ATCC700603, Klebsiella pneumoniae ATCC 700603 (SHV-18, ESBL producer strain), 1000 cfu/spot, sensitive disc medium, read-out: Minimum Inhibitory Concentration (MIC)
[8] = Pseudomonas aeruginosa SR24 (no enzyme, Ceftazidime sensitive strain), 1000 cfu/spot, sensitive disc medium, read-out: Minimum Inhibitory Concentration (MIC)
[9] = Pseudomonas aeruginosa SR27060 (IMP-1, MBL producer strain, carbapenem resistant), 1000 cfu/spot, sensitive disc medium, read-out: Minimum Inhibitory Concentration (MIC)

Row | SMILES | MIC [1, 6] | MIC [2, 7] | MIC [3, 8] | MIC [4, 9] | MIC [5] | MIC ([1]; Acinetobacter baumannii, SR24396, read-out: Minimum Inhibitory Concentration (MIC)) | MIC ([2]; Klebsiella pneumoniae, ATCC700603, read-out: Minimum Inhibitory Concentration (MIC)) | MIC ([3]; Pseudomonas aeruginosa, SR24, read-out: Minimum Inhibitory Concentration (MIC)) | MIC ([4]; Pseudomonas aeruginosa, SR27060, read-out: Minimum Inhibitory Concentration (MIC))
1 | COc1c(O)ccc(C(=O)NCC[N+]2(CC3=C(C(=O)[O-])N4C(=O)C(NC(=O)/C(=N\OC(C)(C)C(=O)O)c5csc(N)n5)C4SC3)CCCC2)c1Cl (centres unmarked) [Comparative Compound 1, reference compound] | 64 µg/mL (≈ 83.5 µM) | 16 µg/mL (≈ 20.9 µM) | 4 µg/mL (≈ 5.22 µM) | 32 µg/mL (≈ 41.8 µM) | 16 µg/mL (≈ 20.9 µM) |  |  |  | 
2 | CC(C)(O/N=C(\C(=O)N[C@@H]1C(=O)N2C(C(=O)[O-])=C(C[N+]3(CCNC(=O)c4ccc(O)c(O)c4Cl)CCCC3)CS[C@H]12)c1nsc(N)n1)C(=O)O [Compound I-1] | 0.125 µg/mL (≈ 0.166 µM) | 0.5 µg/mL (≈ 0.664 µM) | 0.063 µg/mL (≈ 0.0836 µM) | 0.25 µg/mL (≈ 0.332 µM) | 0.5 µg/mL (≈ 0.664 µM) |  |  |  | 
3 | CC(C)(O/N=C(\C(=O)N[C@@H]1C(=O)N2C(C(=O)O)=C(C[N+]3(CCNC(=O)c4ccc(O)c(O)c4)CCCC3)CS[C@H]12)c1csc(N)n1)C(=O)O [Compound I-2] | 0.25 µg/mL | 0.25 µg/mL | 0.063 µg/mL | 0.125 µg/mL |  |  |  |  | 
4 | CC(C)(O/N=C(\C(=O)N[C@@H]1C(=O)N2C(C(=O)O)=C(C[N+]3(CCNC(=O)c4cc(Cl)c(O)c(O)c4Cl)CCCC3)CS[C@H]12)c1csc(N)n1)C(=O)O [Compound I-3] | 0.125 µg/mL | 0.125 µg/mL | 0.031 µg/mL | 0.125 µg/mL |  |  |  |  | 
5 | CC(C)(O/N=C(\C(=O)N[C@@H]1C(=O)N2C(C(=O)[O-])=C(C[N+]3(CCNC(=O)c4ccc(O)c(O)c4Cl)CCCCCC3)CS[C@H]12)c1csc(N)n1)C(=O)O [Compound I-8] |  |  |  |  |  | 0.25 µg/mL (≈ 0.32 µM) | 0.125 µg/mL (≈ 0.16 µM) | 0.031 µg/mL (≈ 0.0397 µM) | 0.125 µg/mL (≈ 0.16 µM)
6 | C[C@H](O/N=C(\C(=O)N[C@@H]1C(=O)N2C(C(=O)[O-])=C(C[N+]3(CCNC(=O)c4ccc(O)c(O)c4Cl)CCCC3)CS[C@H]12)c1nc(N)sc1Cl)C(=O)[O-].[Na+] [Compound I-15] | 0.25 µg/mL | 0.125 µg/mL | 0.063 µg/mL | 0.125 µg/mL | 4 µg/mL |  |  |  | 
7 | CC(C)(O/N=C(\C(=O)N[C@@H]1C(=O)N2C(C(=O)[O-])=C(C[N+]3(CCNC(=O)c4ccc(O)c(O)c4Cl)CCCCC3)CS[C@H]12)c1csc(N)n1)C(=O)O [Compound I-18] | 0.25 µg/mL (≈ 0.326 µM) | 0.125 µg/mL (≈ 0.163 µM) | 0.063 µg/mL (≈ 0.0822 µM) | 0.25 µg/mL (≈ 0.326 µM) | 0.5 µg/mL (≈ 0.653 µM) |  |  |  | 
8 | C[C@H](O/N=C(\C(=O)N[C@@H]1C(=O)N2C(C(=O)[O-])=C(C[N+]3(CCNC(=O)c4cc(Cl)c(O)c(O)c4Cl)CCCCC3)CS[C@H]12)c1nc(N)sc1Cl)C(=O)[O-].[Na+] [Compound I-23] | 0.125 µg/mL | 0.031 µg/mL | 0.031 µg/mL | 0.125 µg/mL |  |  |  |  | 

The next lines start with results.

Row | MIC [1, 6] | MIC [2, 7] | MIC [3, 8] | MIC [4, 9] | MIC [5] | SMILES | MIC ([1]; Acinetobacter baumannii, SR24396, read-out: Minimum Inhibitory Concentration (MIC)) | MIC ([2]; Klebsiella pneumoniae, ATCC700603, read-out: Minimum Inhibitory Concentration (MIC)) | MIC ([3]; Pseudomonas aeruginosa, SR24, read-out: Minimum Inhibitory Concentration (MIC)) | MIC ([4]; Pseudomonas aeruginosa, SR27060, read-out: Minimum Inhibitory Concentration (MIC))
9 | 0.25 µg/mL (≈ 0.332 µM) | 0.25 µg/mL (≈ 0.332 µM) | 0.063 µg/mL (≈ 0.0838 µM) | 0.125 µg/mL (≈ 0.166 µM) | 0.5 µg/mL (≈ 0.665 µM) | CC(C)(O/N=C(\C(=O)N[C@@H]1C(=O)N2C(C(=O)[O-])=C(C[N+]3(CCNC(=O)c4ccc(O)c(O)c4Cl)CCCC3)CS[C@H]12)c1csc(N)n1)C(=O)O [Compound I-12] |  |  |  | 
10 | 0.5 µg/mL (≈ 0.683 µM) | 0.25 µg/mL (≈ 0.342 µM) | 0.063 µg/mL (≈ 0.0861 µM) | 0.125 µg/mL (≈ 0.171 µM) | 0.5 µg/mL (≈ 0.683 µM) | CC(C)(O/N=C(\C(=O)N[C@@H]1C(=O)N2C(C(=O)[O-])=C(C[N+]3(CCNC(=O)c4ccc(O)c(O)c4)CCCCC3)CS[C@H]12)c1csc(N)n1)C(=O)O [Compound I-17] |  |  |  | 
11 | 0.125 µg/mL (≈ 0.156 µM) | 0.125 µg/mL (≈ 0.156 µM) | 0.063 µg/mL (≈ 0.0787 µM) | 0.125 µg/mL (≈ 0.156 µM) | 0.25 µg/mL (≈ 0.312 µM) | CC(C)(O/N=C(\C(=O)N[C@@H]1C(=O)N2C(C(=O)[O-])=C(C[N+]3(CCNC(=O)c4cc(Cl)c(O)c(O)c4Cl)CCCCC3)CS[C@H]12)c1csc(N)n1)C(=O)O [Compound I-19] |  |  |  | 
12 | 0.25 µg/mL | 0.125 µg/mL | 0.063 µg/mL | 0.125 µg/mL | 4 µg/mL | C[C@H](O/N=C(\C(=O)N[C@@H]1C(=O)N2C(C(=O)[O-])=C(C[N+]3(CCNC(=O)c4ccc(O)c(O)c4Cl)CCCCC3)CS[C@H]12)c1nc(N)sc1Cl)C(=O)[O-].[Na+] [Compound I-22] |  |  |  | 
